Test results: patent US8975406B2, “Compound useful for the treatment of degenerative and inflammatory diseases” (Galapagos N.V., priority 2011, dated 2015)

How the values were obtained:
Recombinant human JAK1 = biological target: T1, Recombinant human JAK1 (Homo sapiens, UniProt P23458); assay: JAK1 Ulight-JAK1 peptide assay; type: biochemical; settings: Ulight-JAK1(tyr1023) peptide, 7 μM ATP
T1 construct: catalytic domain (amino acids 866-1154; catalog number PV4774); purchased Invitrogen PV4774
Procedure: Recombinant human JAK1 (catalytic domain, amino acids 866-1154; catalog number PV4774) was purchased from Invitrogen. 1 ng of JAK1 was incubated with 20 nM Ulight-JAK1(tyr1023) peptide (Perkin Elmer catalog number TRF0121) in kinase reaction buffer (25 mM MOPS pH6.8, 0.01% Brij-35, 5 mM MgCl2, 2 mM DTT, 7 μM ATP) with or without 4 μL containing test compound or vehicle (DMSO, 1% final concentration), in a total volume of 20 μL, in a white 384 Opti plate (Perkin Elmer, catalog number 6007290). After 60 min at room temperature, reactions were stopped by adding 20 μL/well of detection mixture (1× detection buffer (Perkin Elmer, catalog number CR97-100C), 0.5 nM Europium-anti-phosphotyrosine (PT66) (Perkin Elmer, catalog number AD0068), 10 mM EDTA). Readout is performed using the Envision with excitation at 320 nm and measuring emission at 615 nm (Perkin Elmer). Kinase activity was calculated by subtracting relative fluorescence units (RFU) obtained in the presence of a positive control inhibitor (10 μM staurosporine) from RFU obtained in the presence of vehicle. The ability of a test compound to inhibit this activity was determined as: Percentage inhibition=((RFU determined for sample with test compound present−RFU determined for sample with positive control inhibitor)divided by(RFU determined in the presence of vehicle−RFU determined for sample with positive control inhibitor))*100.
Dose dilution series were prepared for the compounds enabling the testing of dose-response effects in the JAK1 assay and the calculation of the IC50 for the compound. Each compound is routinely tested at concentration of 20 μM followed by a ⅕ serial dilution, 10 points in a final concentration of 1% DMSO. When potency of compound series increases, more dilutions are prepared and/or the top concentration are lowered (e.g. 5 μM, 1 μM). The data are expressed as the average IC50 from the assays±standard error of the mean.

[1] = biological target: T2, Recombinant human TYK2 catalytic domain (Homo sapiens, UniProt P29597); assay: TYK2 inhibition assay; type: biochemical; settings: polyGT substrate, 33P-gamma-ATP filter assay, 0.1 μM ATP
T2 construct: catalytic domain (amino acids 871-1187; catalog number 08-147); GST; purchased Carna Biosciences 08-147
T2 sequence (P29597 871-1187): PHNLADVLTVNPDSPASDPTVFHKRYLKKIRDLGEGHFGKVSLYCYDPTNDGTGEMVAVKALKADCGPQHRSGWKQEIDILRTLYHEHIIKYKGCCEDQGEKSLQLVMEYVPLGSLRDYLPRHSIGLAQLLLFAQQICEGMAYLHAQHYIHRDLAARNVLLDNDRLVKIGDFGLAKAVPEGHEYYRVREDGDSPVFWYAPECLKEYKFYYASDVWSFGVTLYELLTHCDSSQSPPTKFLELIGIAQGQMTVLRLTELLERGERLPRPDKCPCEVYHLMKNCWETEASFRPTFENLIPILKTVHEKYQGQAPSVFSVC
Procedure: Recombinant human TYK2 catalytic domain (amino acids 871-1187; catalog number 08-147) was purchased from Carna biosciences. 4 ng of TYK2 was incubated with 12.5 μg polyGT substrate (Sigma catalog number P0275) in kinase reaction buffer (25 mM Hepes pH 7.2, 50 mM NaCl, 0.5 mM EDTA, 1 mM DTT, 5 mM MnCl2, 10 mM MgCl2, 0.1% Brij-35, 0.1 μM non-radioactive ATP, 0.125 μCi ^33P-gamma-ATP (Perkin Elmer, catalog number NEG602K001MC) final concentrations) with or without 5 μL containing test compound or vehicle (DMSO, 1% final concentration), in a total volume of 25 μL, in a polypropylene 96-well plate (Greiner, V-bottom). After 90 min at 30° C., reactions were stopped by adding 25 μL/well of 150 mM phosphoric acid. All of the terminated kinase reaction was transferred to prewashed (75 mM phosphoric acid) 96 well filter plates (Perkin Elmer catalog number 6005177) using a cell harvester (Perkin Elmer). Plates were washed 6 times with 300 μL per well of a 75 mM phosphoric acid solution and the bottom of the plates was sealed. 40 μL/well of Microscint-20 was added, the top of the plates was sealed and readout was performed using the Topcount (Perkin Elmer). Kinase activity was calculated by subtracting counts per min (cpm) obtained in the presence of a positive control inhibitor (10 μM staurosporine) from cpm obtained in the presence of vehicle. The ability of a test compound to inhibit this activity was determined as: Percentage inhibition=((cpm determined for sample with test compound present−cpm determined for sample with positive control inhibitor)divided by(cpm determined in the presence of vehicle−cpm determined for sample with positive control inhibitor))*100.
Dose dilution series were prepared for the compounds enabling the testing of dose-response effects in the TYK2 assay and the calculation of the IC50 for each compound. Each compound was routinely tested at concentration of 20 μM followed by a ⅓ serial dilution, 8 points (20 μM-6.67 μM-2.22 μM-740 nM-247 nM-82 nM-27 nM-9 nM) in a final concentration of 1% DMSO. When potency of compound series increased, more dilutions were prepared and/or the top concentration was lowered (e.g. 5 μM, 1 μM).

T1 sequence (P23458 866-1154): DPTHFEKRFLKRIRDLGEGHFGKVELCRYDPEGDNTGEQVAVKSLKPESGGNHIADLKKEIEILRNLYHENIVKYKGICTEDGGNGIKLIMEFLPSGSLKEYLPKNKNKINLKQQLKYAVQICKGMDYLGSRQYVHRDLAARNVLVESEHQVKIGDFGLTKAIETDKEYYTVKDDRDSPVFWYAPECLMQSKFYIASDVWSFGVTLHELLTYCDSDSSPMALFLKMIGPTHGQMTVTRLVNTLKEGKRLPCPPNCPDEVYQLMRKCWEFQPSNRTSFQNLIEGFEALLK

SMILES	IC50 (Recombinant human JAK1) [nM]	IC50 [1] [nM]
CS(=O)(=O)C1CCN(Cc2ccc(-c3cccn4nc(NC(=O)C5CC5)c(Cl)c34)cc2F)CC1 [Compound 20, N-(3-chloro-4-(3-fluoro-4-((4-(methylsulfonyl)piperidin-1-yl)methyl)phenyl)pyrazolo[1,5-a]pyridin-2-yl)cyclopropanecarboxamide]	0.01 to 100	0.01 to 100
CC(=O)Nc1cc2c(-c3ccc(CN4CCN(S(C)(=O)=O)CC4)c(F)c3)cccn2n1 [Compound 21]	0.01 to 100	101 to 500
CC(=O)Nc1cc2c(-c3cnc(CN4CCN(S(C)(=O)=O)CC4)c(F)c3)cccn2n1 [Compound 26, N-(4-(5-fluoro-6-((4-(methylsulfonyl)piperazin-1-yl)methyl)pyridin-3-yl)pyrazolo[1,5-a]pyridin-2-yl)acetamide]	101 to 500	> 1000
O=C(Nc1cc2c(-c3ccc4c(ccn4Cc4ccccc4)c3)cccn2n1)C1CC1 [Compound 3, N-(4-(1-benzyl-1H-indol-5-yl)pyrazolo[1,5-a]pyridin-2-yl)cyclopropanecarboxamide]	> 1000	101 to 500
CC(=O)Nc1cc2c(-c3ccc(CN4CCS(=O)(=O)CC4)c(F)c3)cccn2n1 [Compound 27, N-{4-[4-(1,1-Dioxo-thiomorpholin-4-ylmethyl)-3-fluoro-phenyl]-pyrazolo[1,5-a]pyridin-2-yl}-acetamide]	0.01 to 100	0.01 to 100
O=C(NCCOc1ccccc1)c1ccc(-c2cccn3nc(NC(=O)C4CC4)cc23)cc1 [Compound 6, 4-(2-(cyclopropanecarboxamido)pyrazolo[1,5-a]pyridin-4-yl)-N-(2-phenoxyethyl)benzamide]	0.01 to 100	101 to 500
C[C@H](c1ccc(-c2cccn3nc(NC(=O)C4CC4)cc23)cc1)N1CCN(S(C)(=O)=O)CC1 [Compound 46, (R)-N-(4-(4-(1-(4-(methylsulfonyl)piperazin-1-yl)ethyl)phenyl)pyrazolo[1,5-a]pyridin-2-yl)cyclopropanecarboxamide]	0.01 to 100	0.01 to 100
O=C(Nc1nn2cccc(-c3ccc(CN4CCS(=O)(=O)CC4)cc3)c2c1Cl)C1CC1 [Compound 13, Cyclopropanecarboxylic acid {4-[4-(1,1-dioxo-thiomorpholin-4-ylmethyl)-phenyl]-3-chloro-pyrazolo[1,5-a]pyridin-2-yl}-amide]	0.01 to 100	0.01 to 100
CS(=O)(=O)N1CCN(Cc2ccc(-c3cccn4nc(NC(=O)C5CC5)cc34)cc2)CC1 [Compound 15, N-(4-(4-((4-(methylsulfonyl)piperazin-1-yl)methyl)phenyl)pyrazolo[1,5-a]pyridin-2-yl)cyclopropanecarboxamide]	0.01 to 100	0.01 to 100
O=C(Nc1nn2cccc(-c3ccc(CN4CCS(=O)(=O)CC4)cc3)c2c1F)C1CC1 [Compound 11, Cyclopropanecarboxylic acid {4-[4-(1,1-dioxo-thiomorpholin-4-ylmethyl)-phenyl]-3-fluoro-pyrazolo[1,5-a]pyridin-2-yl}-amide]	0.01 to 100	0.01 to 100
CS(=O)(=O)C1CCN(Cc2ccc(-c3cccn4nc(NC(=O)C5CC5)cc34)cc2F)CC1 [Compound 18, N-(4-(3-fluoro-4-((4-(methylsulfonyl)piperidin-1-yl)methyl)phenyl)pyrazolo[1,5-a]pyridin-2-yl)cyclopropanecarboxamide]	0.01 to 100	0.01 to 100
CC(=O)Nc1cc2c(-c3ccc(C(C)N4CCN(S(C)(=O)=O)CC4)cc3)cccn2n1 (centres unmarked) [Compound 45, N-(4-(4-(1-(4-(methylsulfonyl)piperazin-1-yl)ethyl)phenyl)pyrazolo[1,5-a]pyridin-2-yl)acetamide]	0.01 to 100	0.01 to 100
C[C@@H]1CN(S(C)(=O)=O)CCN1Cc1ccc(-c2cccn3nc(NC(=O)C4CC4)cc23)cc1 [Compound 44, (R)-N-(4-(4-((2-methyl-4-(methylsulfonyl)piperazin-1-yl)methyl)phenyl)pyrazolo[1,5-a]pyridin-2-yl)cyclopropanecarboxamide]	0.01 to 100	0.01 to 100
O=C(Nc1cc2c(-c3ccc(C(=O)N4CCCCC4)cc3)cccn2n1)C1CC1 [Compound 14, Cyclopropanecarboxylic acid {4-[4-(piperidine-1-carbonyl)-phenyl]-pyrazolo[1,5-a]pyridin-2-yl}-amide]	0.01 to 100	0.01 to 100
CS(=O)(=O)C1CCN(Cc2ccc(-c3cccn4nc(NC(=O)C5CC5)cc34)cc2)CC1 [Compound 17, N-(4-(4-((4-(methylsulfonyl)piperidin-1-yl)methyl)phenyl)pyrazolo[1,5-a]pyridin-2-yl)cyclopropanecarboxamide]	0.01 to 100	0.01 to 100
CC(=O)Nc1cc2c(-c3ccc(CC(=O)N4CCCCC4)cc3)cccn2n1 [Compound 35, N-(4-(4-(2-oxo-2-(piperidin-1-yl)ethyl)phenyl)pyrazolo[1,5-a]pyridin-2-yl)acetamide]	101 to 500	0.01 to 100
O=C(Nc1cc2c(-c3ccc(CN4CCCCC45COC5)cc3)cccn2n1)C1CC1 [Compound 48, N-(4-(4-(2-oxa-5-azaspiro[3.5]nonan-5-ylmethyl)phenyl)pyrazolo[1,5-a]pyridin-2-yl)cyclopropanecarboxamide]	0.01 to 100	101 to 500
CC(=O)Nc1cc2c(-c3ccc(CN4CCC(S(C)(=O)=O)CC4)c(F)c3)cccn2n1 [Compound 29, N-(4-(3-fluoro-4((4-(methylsulfonyl)piperidin-1-yl)methyl)phenyl)pyrazolo[1,5-a]pyridin-2-yl)acetamide]	0.01 to 100	0.01 to 100
O=C(Nc1cc2c(-c3ccc4[nH]ccc4c3)cccn2n1)C1CC1 [Compound 4, N-(4-(1H-indol-5-yl)pyrazolo[1,5-a]pyridin-2-yl)cyclopropanecarboxamide]	101 to 500	0.01 to 100
CC(=O)Nc1cc2c(-c3ccc(CN4CCN(S(C)(=O)=O)CC4)cc3)cccn2n1 [Compound 25, N-(4-(4-((4-(methylsulfonyl)piperazin-1-yl)methyl)phenyl)pyrazolo[1,5-a]pyridin-2-yl)acetamide]	0.01 to 100	101 to 500
O=C(NCCc1ccccc1)c1ccc(-c2cccn3nc(NC(=O)C4CC4)cc23)cc1 [Compound 5, 4-(2-(cyclopropanecarboxamido)pyrazolo[1,5-a]pyridin-4-yl)-N-phenethylbenzamide]	0.01 to 100	0.01 to 100
CC(=O)Nc1cc2c(-c3ccc(CC(=O)N4COCC4(C)C)cc3)cccn2n1 [Compound 38, N-(4-(4-(2-(4,4-dimethyloxazolidin-3-yl)-2-oxoethyl)phenyl)pyrazolo[1,5-a]pyridin-2-yl)acetamide]	101 to 500	101 to 500
